Source: patent US20160177395A1, “BIOMARKERS FOR THE PREDICTION OF RENAL INJURY” (priority 2007, published 2016)
Values joined by “and” are separate entries in the source; they are usually repeats but may differ in a detail not shown here. Identical values can stand only once.

Test system: kidney tissues of treated or untreated rats
Experiment: Real-time qRT-PCR of marker transcripts in kidney tissue panel, discovery stage (Table 22)
Assay type: in vivo, rat
Conditions: rat kidney, listed as Dox
Protocol: Before RT preparation the RNA was treated with DNA-free (Ambion, cat. No. AM1906) DNase treatment and removal—according to manufacturer protocol. DNase procedure was repeated until no DNA is detected in a PCR reaction using the RNA samples.
The mixture is then incubated for 5 min at 65° C. and then quickly chilled on ice. Thereafter, 20 μl of 5× SuperscriptII first strand buffer (Invitrogen, Cat. No. Y00146), 9.6 μl 0.1M DTT (Invitrogen, Cat. No. Y00147) and 160 units RNasin (Promega, Cat. No. N251A) are added, and the mixture is incubated for 10 min at 25° C., followed by further incubation at 42° C. for 2 min. […] The resulting cDNA is diluted 1:20 in TE buffer (10 mM Tris pH=8, 1 mM EDTA pH=8).
cDNA (5 μl), prepared as described above, is used as a template in Real-Time PCR reactions using the SYBR Green I assay (PE Applied Biosystem) with specific primers in 100 nM concentration if not indicated otherwise and UNG Enzyme (Eurogentech or equal) Amplification is effected as follows: 50° C. for 2 min, 95° C. for 10 min, and then 40 cycles of 95° C. for 15 sec, followed by 60° C. for 1 min (if not indicated otherwise). Amplification step is followed by dissociation step. Detection is performed by using the PE Applied Biosystem SDS 7000. The cycle in which the reactions achieved a threshold level (Ct) of fluorescence is registered and is used to calculate the relative transcript quantity in the RT reactions. Non-detected samples are assigned Ct value of 41 and are calculated accordingly. The relative quantity is calculated using the equation Q=efficiencŷ-Ct. The efficiency of the PCR reaction is calculated from a standard curve, created by using serial dilutions of several reverse transcription (RT) reactions. To minimize inherent differences in the RT reaction, the resulting relative quantities are normalized to normalization factor calculated as follows: […]
The relative quantity (Q) of each housekeeping gene in each sample is calculated as described above. In order to calculate the “relative Q relative to MED” each Q for each HSKP gene is divided by the median quantity of this gene in all panel samples. To finally achieve the normalization factor of each sample the geometric mean of all four “relative Q relative to MED” was calculated. The normalization factor was then used for further calculations.
The markers of the present invention were tested with regard to their expression in a panel of kidney tissues samples from treated and control rats. Unless otherwise noted, all experimental data relates to the novel polynucleotides and proteins of the present invention, named according to the segment being tested (as expression was tested through RT-PCR as described). Tests were then performed as described in the “Materials and Experimental Procedures” section above.
The qRT-PCR measurements were normalized according to each samples normalization factor as described in “RT Preparation and Real-Time qRT-PCR Analysis” and further multiplied by a constant factor for ease of viewing.

[1] = day1, individual animals (F and M)
[2] = day5, individual animals (F and M)
[3] = day28, individual animals (F and M)

For `COc1cccc2c1C(=O)c1c(O)c3c(c(O)c1C2=O)C[C@@](O)(C(=O)CO)C[C@@H]3O[C@H]1C[C@H](N)[C@H](O)[C@H](C)O1` [Doxorubicin], the “RATRAB13X_DB71_seg11-13 normalized Real Time PCR” value [1] was 1.1 and 0.9 and 1 and 0.88 and 1.09 and 0.86, the “RNU24174_DB71_seg8 normalized Real Time PCR” value [1] was 0.29 and 0.35 and 0.31 and 0.48 and 0.49 and 0.36 and the “W41270_DB81_seg11 normalized Real Time PCR” value [1] was 2.24 and 1.2 and 1.56 and 1.74 and 0.95 and 0.91. For the same compound, the “W64472_DB81_seg2 normalized Real Time PCR” value [1] was 1.58 and 1.09 and 1.15 and 0.86 and 0.77 and 0.56, the “W83813_DB81_seg27 normalized Real Time PCR” value [1] was 2.9 and 1.56 and 2 and 0.68 and 0.78 and 0.64 and the “AA686189_DB71_seg6 normalized Real Time PCR expression” value (day1, individual animals) was 0.59 and 0.49 and 0.39 and 0.78 and 0.4 and 0.26. For the same compound, the “AI045075_DB71_seg6 normalized Real Time PCR expression” value (day1, individual animals) was 1.12 and 1.21 and 0.78 and 0.61 and 0.64 and 3.12, the “AI454051_DB71_seg0 normalized Real Time PCR expression” value (day1, individual animals) was 1.2 and 1.05 and 1.54 and 0.8 (2×) and 1.03 and the “H31045_DB71_seg5 normalized Real Time PCR expression” value (day1, individual animals) was 1.15 and 0.3 and 1.95 and 0.23 and 0.32 and 0.75. The “H33998_DB71_seg19 normalized Real Time PCR” value [2] was 2.39 and 1.29 and 3.68 and 1.19 and 1.37, the “MUSCYCG1R_DB81_seg15-17 normalized Real Time PCR” value [2] was 1.51 and 1.97 and 3.17 and 1.65 and 2 and the “RATLRFI_DB71_seg9 normalized Real Time PCR” value [2] was 0.46 and 0.29 and 0.18 and 0.47 and 0.25. The “RATRAB13X_DB71_seg11-13 normalized Real Time PCR” value [2] was 1.17 and 1.16 and 0.94 and 0.7 and 0.83, the “RNU24174_DB71_seg8 normalized Real Time PCR” value [2] was 0.83 and 0.59 and 0.63 and 1.08 and 0.87 and the “W41270_DB81_seg11 normalized Real Time PCR” value [2] was 1.71 and 1.37 and 2.13 and 1.64 and 1.35. The “W64472_DB81_seg2 normalized Real Time PCR” value [2] was 1.97 and 1.36 and 2.36 and 3 and 2.54, the “W83813_DB81_seg27 normalized Real Time PCR” value [2] was 2.28 and 1.99 and 2.9 and 1.3 and 1.41 and the “AA686189_DB71_seg6 normalized Real Time PCR expression” value (day5, individual animals) was 1.2 and 0.6 and 0.51 and 0.48 and 0.38. The “AI045075_DB71_seg6 normalized Real Time PCR expression” value (day5, individual animals) was 0.93 (2×) and 2.05 and 0.76 and 0.57, the “AI454051_DB71_seg0 normalized Real Time PCR expression” value (day5, individual animals) was 1.17 and 1.35 and 1.44 and 0.3 and 0.95 and the “H31045_DB71_seg5 normalized Real Time PCR expression” value (day5, individual animals) was 1.86 and 1.19 and 0.52 and 0.35 and 1.41. For the same compound, the “H33998_DB71_seg19 normalized Real Time PCR” value [3] was 0.48 and 0.58 and 0.96 and 0.64 and 0.44 and 0.54, the “MUSCYCG1R_DB81_seg15-17 normalized Real Time PCR” value [3] was 1.07 and 1.52 and 1.26 and 0.99 and 0.98 and 1.28 and the “RATLRFI_DB71_seg9 normalized Real Time PCR” value [3] was 0.72 and 0.4 and 1.47 and 8.34 and 0.53 and 1.08. For the same compound, the “RATRAB13X_DB71_seg11-13 normalized Real Time PCR” value [3] was 0.74 and 0.95 and 1.05 and 0.91 and 0.77 and 0.84, the “RNU24174_DB71_seg8 normalized Real Time PCR” value [3] was 1.99 and 2.06 and 4.39 and 3.5 and 2.2 and 2.91 and the “W41270_DB81_seg11 normalized Real Time PCR” value [3] was 0.84 and 0.44 and 0.77 and 1.64 and 0.54 and 0.5. The “W64472_DB81_seg2 normalized Real Time PCR” value [3] was 0.8 and 0.69 and 1.73 and 1.71 and 0.83 and 1.15, the “W83813_DB81_seg27 normalized Real Time PCR” value [3] was 0.58 and 0.61 and 0.63 and 0.51 (2×) and 0.55 and the “AA686189_DB71_seg6 normalized Real Time PCR expression” value (day28, individual animals) was 1.5 and 0.62 and 0.04 and 6.37 and 0.92 and 1.28. For the same compound, the “AI045075_DB71_seg6 normalized Real Time PCR expression” value (day28, individual animals) was 0.66 and 0.82 and 1.6 and 1.49 and 0.9 and 0.87, the “AI454051_DB71_seg0 normalized Real Time PCR expression” value (day28, individual animals) was 0.85 and 0.92 and 0.87 and 0.96 and 1.11 and 0.72 and the “H31045_DB71_seg5 normalized Real Time PCR expression” value (day28, individual animals) was 2.16 and 2.58 and 0.51 and 1.57 and 2.33 and 2.12.
